Source: article PMC10955127 (Frontiers in Pharmacology, 2024)
“Also recorded” adds a separate entry of the source. Like-named read-outs stand apart in the source and are kept apart here.

How the values were obtained:
[1] = tested on: THRa; design: method as in ToxCast database; conditions: ref ToxCast database; cited from earlier work
[2] = tested on: hPTCs; conditions: human, 72 h
[3] = ref PubChem or the ECHA database; cited from earlier work
[4] = tested on: thyroid pathway; design: method as in ToxCast database; conditions: ref ToxCast database; cited from earlier work
[5] = in vitro; conditions: human, plasma
[6] = remark: listed apart in the source
Experimental: Figure 8 provides an overview of the tiered workflow and the related in silico and in vitro NAMs used to calculate the MoIE. […] Since this assessment is conducted using plasma concentrations rather than external doses, the comparison is an MoIE.
In this assessment, the total plasma concentrations were used, rather than unbound concentrations, because they are compared with nominal doses used in the in vitro assays (biokinetics in the toxicogenomics incubations were not measured).

[7] = tested on: androgen receptor; design: method as in ToxCast database; conditions: ref ToxCast database; cited from earlier work
[8] = target: T1, COX2(h) (Homo sapiens, UniProt P35354); test: Pharmacology profiling: COX2; assay type: biochemical
T1 sequence (P35354 18-604): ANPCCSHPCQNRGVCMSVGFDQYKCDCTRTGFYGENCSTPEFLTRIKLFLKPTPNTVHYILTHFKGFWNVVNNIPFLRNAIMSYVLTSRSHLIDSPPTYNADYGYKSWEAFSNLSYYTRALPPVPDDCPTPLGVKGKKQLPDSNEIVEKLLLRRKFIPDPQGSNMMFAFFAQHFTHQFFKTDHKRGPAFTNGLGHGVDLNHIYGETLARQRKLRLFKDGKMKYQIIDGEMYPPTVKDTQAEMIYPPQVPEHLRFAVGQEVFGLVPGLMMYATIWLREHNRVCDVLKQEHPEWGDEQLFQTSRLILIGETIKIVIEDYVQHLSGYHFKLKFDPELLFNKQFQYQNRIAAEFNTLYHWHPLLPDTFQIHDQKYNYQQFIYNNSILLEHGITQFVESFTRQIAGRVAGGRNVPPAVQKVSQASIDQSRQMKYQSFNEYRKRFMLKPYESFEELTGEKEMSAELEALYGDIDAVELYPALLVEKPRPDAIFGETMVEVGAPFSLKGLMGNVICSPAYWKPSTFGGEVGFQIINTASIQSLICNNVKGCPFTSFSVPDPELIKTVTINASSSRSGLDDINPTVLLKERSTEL

[9] = Deterministic PBPK model of plasma concentrations; design: species or system human; conditions: deterministic PBPK and Fup
[10] = tested on: Thyroid (TR and TPO only); design: method as in ToxCast; conditions: ref ToxCast, cited from earlier work
[11] = tested on: rats; conditions: teratogenic and embryotoxic effects; ref SCCS, 2023b; cited from earlier work
[12] = tested on: estrogen receptor; design: method as in ToxCast database; conditions: ref ToxCast database; cited from earlier work
[13] = target: Human MRP2 (Homo sapiens, UniProt Q92887); conditions: not told
[14] = tested on: panel of 83 pharmacological targets
Description: The set of targets was extended to broaden the biological coverage.
Results showing an inhibition or stimulation higher than 50% are considered to represent significant effects (i.e. a “hit”).

[15] = tested on: hiPSCs differentiated into cardiomyocytes, hepatocytes, or neural rosettes; conditions: human
[16] = tested on: androgen receptor; design: method as in ToxCast database; conditions: ref ToxCast database; cited from earlier work; remark: listed apart in the source
[17] = target: Human MRP4 (Homo sapiens, UniProt O15439); conditions: not told
[18] = target: COX1(h) (Homo sapiens, UniProt P23219); test: Pharmacology profiling: COX1; assay type: biochemical
[19] = target: Human OAT2v1 (Homo sapiens, UniProt Q9Y694)
[20] = tested on: estrogen receptor; design: method as in ToxCast database; conditions: ref ToxCast database; cited from earlier work; remark: listed apart in the source
[21] = In vitro skin penetration and metabolism, fresh viable pig skin on static Franz cells; conditions: 24 h; epidermis + dermis + receptor fluid
Description: Fresh viable pig skin (without hot steam treatment, by-product from meat industry) was obtained from a local, commercial butcher (Hammoor, Germany). The back skin was from female pigs (bred from “Dänische Landrasse” (female) and Pietrain (male) pigs, ~130 days old, 100 kg body weight). Pig skin samples were gently dry-shaved and washed with water before use. For the experiment, 2 replicate discs from each of 3 donors were used.
Skin of full-thickness was mounted on static Franz cells with a 4.9 cm² application area. The receptor compartment of the diffusion cell was filled with approx. 5 ml RF (1% BSA, 0.9% NaCl, 0.05% gentamycin sulfate in water), above a magnetic stirrer set to low rotation. […] The experiment was conducted using non-occluded conditions.
The dermal absorption was calculated as the total amount present within epidermis (without the amount in the total SC strips), dermis and RF.

[22] = tested on: androgen receptor; design: method as in ToxCast database; conditions: ref ToxCast database; cited from earlier work; remark: listed apart in the source
[23] = target: Human OAT3 (Homo sapiens, UniProt Q8TCC7)
[24] = tested on: estrogen receptor (ER); conditions: ref ToxCast, cited from earlier work
[25] = tested on: thyroid pathway; design: method as in ToxCast database; conditions: ref ToxCast database; cited from earlier work; remark: listed apart in the source
[26] = tested on: androgen receptor; design: method as in ToxCast database; conditions: ref ToxCast database; cited from earlier work; remark: listed apart in the source
[27] = tested on: estrogen receptor; design: method as in ToxCast database; conditions: ref ToxCast database; cited from earlier work; remark: listed apart in the source

Chain of COX1(h) (P23219 24-599): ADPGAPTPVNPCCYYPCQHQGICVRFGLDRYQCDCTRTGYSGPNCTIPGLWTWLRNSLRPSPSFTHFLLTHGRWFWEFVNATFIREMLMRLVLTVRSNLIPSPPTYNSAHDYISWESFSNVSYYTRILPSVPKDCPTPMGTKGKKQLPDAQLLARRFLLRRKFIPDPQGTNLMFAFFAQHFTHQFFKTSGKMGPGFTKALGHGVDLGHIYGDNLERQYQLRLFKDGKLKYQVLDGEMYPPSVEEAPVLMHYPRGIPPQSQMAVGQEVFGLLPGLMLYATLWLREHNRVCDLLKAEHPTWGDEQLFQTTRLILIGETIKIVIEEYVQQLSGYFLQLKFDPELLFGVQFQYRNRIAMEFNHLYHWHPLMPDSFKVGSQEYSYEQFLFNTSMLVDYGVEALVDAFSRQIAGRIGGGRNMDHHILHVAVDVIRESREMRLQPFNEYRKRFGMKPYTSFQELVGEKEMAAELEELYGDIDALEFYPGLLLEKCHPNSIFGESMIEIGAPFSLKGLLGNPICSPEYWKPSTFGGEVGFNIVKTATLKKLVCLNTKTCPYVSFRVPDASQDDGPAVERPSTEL
Chain of Human OAT2v1 (Q9Y694 1-546 isoform Q9Y694-2): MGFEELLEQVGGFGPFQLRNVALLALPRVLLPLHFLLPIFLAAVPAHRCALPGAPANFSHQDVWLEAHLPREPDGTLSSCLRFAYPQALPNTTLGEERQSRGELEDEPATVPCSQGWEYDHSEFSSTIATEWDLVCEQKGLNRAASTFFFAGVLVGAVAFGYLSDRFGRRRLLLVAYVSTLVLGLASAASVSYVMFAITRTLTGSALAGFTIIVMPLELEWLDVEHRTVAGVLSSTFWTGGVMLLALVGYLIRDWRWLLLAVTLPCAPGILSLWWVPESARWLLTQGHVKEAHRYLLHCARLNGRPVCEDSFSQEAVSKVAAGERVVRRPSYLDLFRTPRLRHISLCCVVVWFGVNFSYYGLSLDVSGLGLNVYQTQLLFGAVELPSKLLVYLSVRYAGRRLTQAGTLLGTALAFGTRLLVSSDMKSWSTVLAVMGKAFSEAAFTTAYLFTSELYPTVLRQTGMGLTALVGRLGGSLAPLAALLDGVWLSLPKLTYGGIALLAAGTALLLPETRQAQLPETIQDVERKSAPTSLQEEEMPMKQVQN
Chain of Human MRP2 (Q92887 whole entry): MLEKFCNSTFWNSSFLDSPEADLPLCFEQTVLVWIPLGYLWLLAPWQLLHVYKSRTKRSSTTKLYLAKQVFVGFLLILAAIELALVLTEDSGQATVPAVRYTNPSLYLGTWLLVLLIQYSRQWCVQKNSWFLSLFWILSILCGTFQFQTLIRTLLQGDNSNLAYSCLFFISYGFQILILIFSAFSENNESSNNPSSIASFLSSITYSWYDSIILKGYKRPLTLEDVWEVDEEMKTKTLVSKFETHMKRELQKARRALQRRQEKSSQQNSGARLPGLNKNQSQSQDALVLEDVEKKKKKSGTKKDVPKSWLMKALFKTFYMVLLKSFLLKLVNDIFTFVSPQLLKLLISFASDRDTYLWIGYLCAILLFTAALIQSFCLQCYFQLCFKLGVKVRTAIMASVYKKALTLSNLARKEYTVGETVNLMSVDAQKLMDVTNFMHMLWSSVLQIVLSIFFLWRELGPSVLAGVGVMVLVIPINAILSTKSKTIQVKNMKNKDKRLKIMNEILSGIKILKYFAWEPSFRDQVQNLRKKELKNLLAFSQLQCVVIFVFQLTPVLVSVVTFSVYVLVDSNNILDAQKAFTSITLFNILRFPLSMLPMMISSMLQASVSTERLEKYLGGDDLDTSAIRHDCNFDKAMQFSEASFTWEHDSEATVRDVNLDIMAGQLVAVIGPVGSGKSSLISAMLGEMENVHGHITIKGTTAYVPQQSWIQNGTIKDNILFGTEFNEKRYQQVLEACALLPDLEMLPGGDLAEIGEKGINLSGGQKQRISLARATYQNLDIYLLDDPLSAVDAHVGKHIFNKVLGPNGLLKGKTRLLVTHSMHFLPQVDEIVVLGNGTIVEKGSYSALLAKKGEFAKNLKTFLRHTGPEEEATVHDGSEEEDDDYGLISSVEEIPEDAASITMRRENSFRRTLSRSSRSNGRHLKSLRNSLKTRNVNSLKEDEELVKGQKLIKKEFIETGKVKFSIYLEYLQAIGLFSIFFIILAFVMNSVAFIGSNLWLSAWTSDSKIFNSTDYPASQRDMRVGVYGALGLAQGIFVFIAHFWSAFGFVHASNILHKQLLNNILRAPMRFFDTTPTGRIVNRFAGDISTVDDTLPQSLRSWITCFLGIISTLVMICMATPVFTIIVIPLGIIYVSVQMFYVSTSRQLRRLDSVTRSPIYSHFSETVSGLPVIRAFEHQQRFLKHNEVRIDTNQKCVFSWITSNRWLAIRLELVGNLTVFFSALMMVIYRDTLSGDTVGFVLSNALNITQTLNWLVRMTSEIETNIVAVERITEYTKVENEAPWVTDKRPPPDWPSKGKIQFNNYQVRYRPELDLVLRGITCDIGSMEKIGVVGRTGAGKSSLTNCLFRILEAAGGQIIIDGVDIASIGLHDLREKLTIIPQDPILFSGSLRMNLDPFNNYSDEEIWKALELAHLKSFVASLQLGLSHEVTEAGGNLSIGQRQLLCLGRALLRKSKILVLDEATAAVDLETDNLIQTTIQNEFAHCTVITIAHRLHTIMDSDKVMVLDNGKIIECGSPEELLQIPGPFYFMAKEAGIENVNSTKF
Chain of Human OAT3 (Q8TCC7 whole entry): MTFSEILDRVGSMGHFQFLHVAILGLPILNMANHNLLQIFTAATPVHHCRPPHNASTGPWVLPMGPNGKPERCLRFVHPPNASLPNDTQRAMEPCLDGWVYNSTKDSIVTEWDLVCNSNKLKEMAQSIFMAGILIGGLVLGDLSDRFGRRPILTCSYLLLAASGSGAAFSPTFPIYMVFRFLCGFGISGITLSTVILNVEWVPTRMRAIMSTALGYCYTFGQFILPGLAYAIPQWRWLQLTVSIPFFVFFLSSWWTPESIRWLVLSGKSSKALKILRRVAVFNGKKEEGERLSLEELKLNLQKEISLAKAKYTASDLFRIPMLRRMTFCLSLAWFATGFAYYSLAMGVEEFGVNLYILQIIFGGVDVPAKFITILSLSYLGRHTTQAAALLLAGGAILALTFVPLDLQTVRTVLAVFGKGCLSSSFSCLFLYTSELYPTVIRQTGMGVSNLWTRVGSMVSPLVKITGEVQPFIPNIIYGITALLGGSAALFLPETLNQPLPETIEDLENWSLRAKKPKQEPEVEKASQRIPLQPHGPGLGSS
Chain of Human MRP4 (O15439 whole entry): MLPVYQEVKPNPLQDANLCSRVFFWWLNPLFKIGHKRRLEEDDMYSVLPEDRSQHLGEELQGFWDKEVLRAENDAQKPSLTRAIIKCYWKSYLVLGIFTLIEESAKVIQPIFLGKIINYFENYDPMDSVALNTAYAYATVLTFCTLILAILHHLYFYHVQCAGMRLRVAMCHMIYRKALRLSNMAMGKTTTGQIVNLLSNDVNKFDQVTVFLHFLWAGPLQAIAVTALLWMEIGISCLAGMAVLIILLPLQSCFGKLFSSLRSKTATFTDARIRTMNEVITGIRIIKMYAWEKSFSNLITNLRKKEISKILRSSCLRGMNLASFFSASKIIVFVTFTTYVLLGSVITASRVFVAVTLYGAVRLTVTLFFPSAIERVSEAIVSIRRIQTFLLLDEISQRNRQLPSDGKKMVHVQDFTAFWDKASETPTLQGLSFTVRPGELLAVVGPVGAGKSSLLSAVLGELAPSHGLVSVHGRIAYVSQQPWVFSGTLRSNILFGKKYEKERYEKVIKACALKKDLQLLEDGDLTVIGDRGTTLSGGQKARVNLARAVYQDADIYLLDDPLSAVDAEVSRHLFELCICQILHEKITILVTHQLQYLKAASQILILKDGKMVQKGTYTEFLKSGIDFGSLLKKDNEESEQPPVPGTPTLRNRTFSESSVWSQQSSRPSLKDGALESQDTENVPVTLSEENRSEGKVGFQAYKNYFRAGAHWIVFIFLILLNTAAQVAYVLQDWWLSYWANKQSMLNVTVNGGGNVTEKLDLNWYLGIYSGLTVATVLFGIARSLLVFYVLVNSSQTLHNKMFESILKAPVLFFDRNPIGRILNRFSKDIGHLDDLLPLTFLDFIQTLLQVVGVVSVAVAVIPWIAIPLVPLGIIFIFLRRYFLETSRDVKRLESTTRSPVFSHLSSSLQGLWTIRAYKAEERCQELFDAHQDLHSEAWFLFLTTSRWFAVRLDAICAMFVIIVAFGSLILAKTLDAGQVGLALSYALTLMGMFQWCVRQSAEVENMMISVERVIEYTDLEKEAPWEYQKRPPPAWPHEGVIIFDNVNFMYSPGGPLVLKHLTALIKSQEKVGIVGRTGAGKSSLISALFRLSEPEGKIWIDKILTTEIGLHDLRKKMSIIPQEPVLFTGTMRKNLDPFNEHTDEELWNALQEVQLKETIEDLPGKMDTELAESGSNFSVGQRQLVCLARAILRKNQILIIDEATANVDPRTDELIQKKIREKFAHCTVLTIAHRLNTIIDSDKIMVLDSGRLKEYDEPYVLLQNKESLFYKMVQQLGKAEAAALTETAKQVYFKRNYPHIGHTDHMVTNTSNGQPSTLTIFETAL

O=C(O)c1ccccc1O [SA, salicylic acid]
Thyroid pathway receptor binding (THRa): Call [1]: Negative
PoD [2]: >300 µM
Vapor pressure [3]: 0.0208 Pa
Thyroid pathway Reporter protein Antagonist: Call [4]: Negative
Fraction unbound in the plasma (Fup): 3 to ∼20
fraction unbound [5]: 0.029 to 0.18
MoIE ([6]; PoD method 1 (213 µM) / CI95 Cmax 0.630 µM): 338
MoIE ([6]; PoD method 1 (213 µM) / mean Cmax 0.273 µM): 780
MoIE ([6]; PoD method 2 ([…]) / CI95 Cmax 0.630 µM): 16
MoIE ([6]; PoD method 2 ([…]) / mean Cmax 0.273 µM): 38
Androgen pathway receptor binding: Call [7]: Negative
IC50 [8]: > 10 mM
Inhibition of COX2, screening ([8]; 10 µM): did not inhibit
inhibition at 10000 µM ([8]; 10 mM): 29%
Exposure of unbound SA compared to unbound BSal [9]: ≥ 5 fold
Thyroid (TR and TPO only): Experimental Data (call) ([10]; Tier 0): Negative
Thyroid (TR and TPO only): assays active / assays [10]: 0/11 active
NOAEL [11]: 75 mg/kg bw
Estrogen pathway Dimerisation: Call [12]: Negative
Substrate of MRP2 (efflux) [13]: not a substrate
PoD [14]: ≥10,000 µM
Effect on panel targets ([14]; up to millimolar concentrations): none of the targets tested were significantly impacted
PoD [15]: 500 µM
Androgen pathway Dimerisation: Call [16]: Negative
Substrate of MRP4 (efflux) [17]: not a substrate
Inhibition of COX1, screening ([18]; 10 µM): did not inhibit
Inhibition of COX1, follow-up ([18]; up to 10 mM): did not inhibit; also recorded: no effect
Substrate of OAT2v1 (uptake) [19]: not a substrate
Estrogen pathway Reporter protein Agonist: Call [20]: Negative
Dermal absorption of individual analytes [21]: 6.9 ± 0.4 percentage of the applied dose
Androgen pathway Reporter protein Agonist: Call [22]: Negative
Substrate of OAT3 (uptake) [23]: borderline substrate
Estrogen: Experimental Data (call) ([24]; Tier 0): Negative
Estrogen: assays active / assays [24]: 0/18 active
Thyroid pathway mRNA induction: Call [25]: Negative
Androgen pathway Reporter protein Antagonist: Call [26]: Negative
Estrogen pathway mRNA induction: Call [27]: Negative
